# In ChEMBL document CHEMBL1201862, “PubChem BioAssay data set” (2004):
# Calls of active or inactive are those of the source.
# Tests used:
# [1] = restored growth of temperature-sensitive Burl-1 yeast – whole organism, S. cerevisiae, Burl-1 ts mutant, luminescence, counter-screen for SUMOylation pathway inhibitor project, dose response (AID 463199); format: functional
# [2] = target: Tyrosine-protein phosphatase non-receptor type 12 (Homo sapiens, UniProt Q05209); assay: SAR Selectivity Analysis of small molecule inhibitors of PEST using pCAP in a fluorescence assay. [Related pubchem assays (depositor defined):AID1779, AID1784, AID2135]; format: functional
# [3] = target: T1, Tyrosine-protein phosphatase non-receptor type 7 (Homo sapiens, UniProt P35236); assay: inhibition of hematopoietic tyrosine phosphatase HePTP – biochemical, set 2, SAR follow-up (AID 449736); format: functional
# T1 sequence (P35236 whole entry): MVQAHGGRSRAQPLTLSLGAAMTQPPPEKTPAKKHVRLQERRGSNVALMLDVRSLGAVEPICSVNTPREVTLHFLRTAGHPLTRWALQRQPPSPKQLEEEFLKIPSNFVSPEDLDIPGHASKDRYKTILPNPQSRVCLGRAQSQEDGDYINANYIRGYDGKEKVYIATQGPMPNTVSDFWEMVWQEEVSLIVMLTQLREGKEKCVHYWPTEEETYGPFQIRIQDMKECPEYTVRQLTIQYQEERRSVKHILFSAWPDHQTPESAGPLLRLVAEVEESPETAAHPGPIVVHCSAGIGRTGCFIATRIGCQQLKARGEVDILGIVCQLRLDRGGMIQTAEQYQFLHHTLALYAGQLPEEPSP
# [4] = target: T2, Tyrosine-protein phosphatase non-receptor type 22 (Homo sapiens, UniProt Q9Y2R2); assay: SAR LYP1 Fluorescent Assay using OMFP substrate for In Vitro dose response studies - Set 3. [Related pubchem assays (depositor defined):AID1779, AID1784, AID2140, AID2686]; format: functional
# T2 sequence (Q9Y2R2 whole entry): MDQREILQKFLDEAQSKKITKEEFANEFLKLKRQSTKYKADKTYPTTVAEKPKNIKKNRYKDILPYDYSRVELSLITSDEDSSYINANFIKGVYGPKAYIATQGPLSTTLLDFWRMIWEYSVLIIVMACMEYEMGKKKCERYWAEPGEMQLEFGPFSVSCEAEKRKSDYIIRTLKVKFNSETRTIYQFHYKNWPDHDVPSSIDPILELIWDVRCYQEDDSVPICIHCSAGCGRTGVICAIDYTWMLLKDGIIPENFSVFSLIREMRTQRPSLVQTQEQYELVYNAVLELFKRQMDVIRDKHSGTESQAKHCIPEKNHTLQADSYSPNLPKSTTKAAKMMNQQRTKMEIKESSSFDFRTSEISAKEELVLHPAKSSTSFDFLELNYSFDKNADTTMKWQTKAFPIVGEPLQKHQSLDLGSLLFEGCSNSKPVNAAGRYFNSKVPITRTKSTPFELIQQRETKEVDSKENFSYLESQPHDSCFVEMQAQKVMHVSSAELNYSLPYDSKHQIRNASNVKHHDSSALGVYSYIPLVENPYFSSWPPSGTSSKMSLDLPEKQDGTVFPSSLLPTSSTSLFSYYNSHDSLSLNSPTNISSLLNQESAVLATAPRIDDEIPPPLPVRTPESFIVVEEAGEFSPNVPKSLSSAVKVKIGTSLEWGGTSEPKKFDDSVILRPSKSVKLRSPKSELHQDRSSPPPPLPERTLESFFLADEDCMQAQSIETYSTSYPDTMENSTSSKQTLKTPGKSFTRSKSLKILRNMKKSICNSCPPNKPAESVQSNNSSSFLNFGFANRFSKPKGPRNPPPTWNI
# [5] = target: T3, Dual specificity protein phosphatase 3 (Homo sapiens, UniProt P51452); assay: SAR VHR1 Fluorescent Assay for In Vitro dose response studies. [Related pubchem assays (depositor defined):AID1654, AID1661, AID1878, AID1992, AID2004, AID2070, AID2085]; format: functional
# [6] = target: Dual specificity protein phosphatase 6 (Rattus norvegicus, UniProt Q64346); format: functional;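 note: confirmatory in vitro dose-response testing of MKP-3 inhibition; recombinant His-tagged MKP-3 made in E. coli BL21 with OMFP substrate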
# [7] = target: T1, Tyrosine-protein phosphatase non-receptor type 7; assay: redox-active compounds inhibiting HePTP phosphatase – biochemical, fluorescence, mechanism study (AID 2068); format: functional
# [8] = target: T3, Dual specificity protein phosphatase 3; assay: MOA VHR1 Fluorescent secondary assay for identification of redox-state modulating compounds. [Related pubchem assays (depositor defined):AID1654, AID1661, AID1878, AID1957]
# [9] = target: T3, Dual specificity protein phosphatase 3; assay: SAR VHR1 Fluorescent Assay for In Vitro dose response studies Set 2. [Related pubchem assays (depositor defined):AID1654, AID1661, AID1878]; format: functional
# [10] = target: T2, Tyrosine-protein phosphatase non-receptor type 22; assay: inhibition of lymphoid tyrosine phosphatase LYP – biochemical, pCAP fluorogenic substrate, fluorescence, set 3, SAR follow-up (AID 449727); format: functional
# [11] = tested on: INS1; assay: INS-1E survival protection against cytokine death – cell-based, luminescence, retest, dose response (AID 449756); format: functional; conditions: Rattus norvegicus;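 note: cell death triggered by IL-1 beta plus TNF-alpha plus IFN-gamma mixture; protective hits raise ATP signal compared with cytokine alone wells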
# [12] = NIH-3T3 fibroblast cytotoxicity, dose response, cytotoxicity control, cell-based, fluorescence, Alamar Blue, secondary assay (AID 2327); format: functional;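 note: NIH-3T3 mouse fibroblasts cultured with fluconazole at 8 µg/mL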
# [13] = target: ATP-dependent molecular chaperone HSP82 (Candida albicans (strain WO-1) (Yeast), UniProt C4YTQ8); assay: steroid-induced GRE reporter decrease in yeast – S. cerevisiae, luminescence, Hsp90 inhibitor project, dose response (AID 2400); format: functional, cell-based;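 note: beta-galactosidase luminescence from glucocorticoid response element reporter as proxy for Hsp90 function; inhibitor potency where signal loss means Hsp90 inhibition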
# [14] = target: T4, Serine/threonine-protein phosphatase (Candida dubliniensis (strain CD36 / CBS 7987 / NCPF 3949 / NRRLY-17841) (Yeast), UniProt B9W6M3); assay: blockers of CaCl2-induced CDRE-lacZ signaling – S. cerevisiae, luminescence, secondary, dose response (AID 2388); format: functional, cell-based;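 note: yeast reporter cells carrying a calcineurin-responsive lacZ construct stimulated with calcium chloride; luminescent beta-galactosidase reporter signal in whole cells rather than isolated phosphatase activity; potency for inhibition where a drop in reporter signal means calcineurin blockade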
# T4 sequence (B9W6M3 whole entry): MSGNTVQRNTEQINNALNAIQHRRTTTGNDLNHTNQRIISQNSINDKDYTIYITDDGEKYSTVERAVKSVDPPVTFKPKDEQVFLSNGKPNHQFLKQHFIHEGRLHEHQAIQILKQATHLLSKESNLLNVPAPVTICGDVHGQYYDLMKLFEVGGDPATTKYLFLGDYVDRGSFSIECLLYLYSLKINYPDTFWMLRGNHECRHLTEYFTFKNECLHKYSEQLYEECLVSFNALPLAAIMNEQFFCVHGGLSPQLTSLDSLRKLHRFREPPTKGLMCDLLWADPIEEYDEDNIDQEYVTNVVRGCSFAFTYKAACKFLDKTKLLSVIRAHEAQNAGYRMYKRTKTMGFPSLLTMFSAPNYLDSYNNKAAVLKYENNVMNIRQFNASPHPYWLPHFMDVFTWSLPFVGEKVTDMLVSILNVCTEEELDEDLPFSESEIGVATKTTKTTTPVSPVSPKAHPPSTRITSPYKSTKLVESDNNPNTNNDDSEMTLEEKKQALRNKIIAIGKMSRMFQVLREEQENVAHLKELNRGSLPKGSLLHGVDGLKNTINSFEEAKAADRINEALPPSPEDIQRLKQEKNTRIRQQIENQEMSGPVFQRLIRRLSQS
# [15] = MIN6 cell viability loss – mouse insulinoma, cytotoxicity control, dose response (AID 2122); format: functional;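 note: confirmatory high-throughput counterscreen run to flag cytotoxic compounds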
# [16] = fluconazole-exposed Candida albicans growth modulators – fluorescence, retest, confirmation (AID 2467); format: functional, cell-based
# [17] = decrease of insulin promoter-GFP reporter – imaging, high-content screening, mouse beta cells (AID 1628); format: functional; conditions: MIN6
# T3 sequence (P51452 whole entry): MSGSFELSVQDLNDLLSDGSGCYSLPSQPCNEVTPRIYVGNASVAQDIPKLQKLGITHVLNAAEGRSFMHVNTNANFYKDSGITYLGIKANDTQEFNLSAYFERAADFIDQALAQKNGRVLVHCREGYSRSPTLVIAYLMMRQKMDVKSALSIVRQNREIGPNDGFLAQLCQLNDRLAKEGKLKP
# Dual specificity protein phosphatase 6, sequence (Q64346 whole entry): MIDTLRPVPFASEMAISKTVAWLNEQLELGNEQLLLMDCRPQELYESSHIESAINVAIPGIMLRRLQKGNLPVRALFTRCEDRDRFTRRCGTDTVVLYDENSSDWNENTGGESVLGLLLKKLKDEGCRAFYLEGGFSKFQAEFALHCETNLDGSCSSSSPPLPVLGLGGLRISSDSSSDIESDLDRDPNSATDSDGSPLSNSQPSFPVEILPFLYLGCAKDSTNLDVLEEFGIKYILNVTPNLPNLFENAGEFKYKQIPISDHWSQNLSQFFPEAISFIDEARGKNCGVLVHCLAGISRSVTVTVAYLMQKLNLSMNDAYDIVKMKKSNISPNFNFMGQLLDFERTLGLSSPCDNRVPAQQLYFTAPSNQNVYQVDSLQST
# ATP-dependent molecular chaperone HSP82, sequence (C4YTQ8 whole entry): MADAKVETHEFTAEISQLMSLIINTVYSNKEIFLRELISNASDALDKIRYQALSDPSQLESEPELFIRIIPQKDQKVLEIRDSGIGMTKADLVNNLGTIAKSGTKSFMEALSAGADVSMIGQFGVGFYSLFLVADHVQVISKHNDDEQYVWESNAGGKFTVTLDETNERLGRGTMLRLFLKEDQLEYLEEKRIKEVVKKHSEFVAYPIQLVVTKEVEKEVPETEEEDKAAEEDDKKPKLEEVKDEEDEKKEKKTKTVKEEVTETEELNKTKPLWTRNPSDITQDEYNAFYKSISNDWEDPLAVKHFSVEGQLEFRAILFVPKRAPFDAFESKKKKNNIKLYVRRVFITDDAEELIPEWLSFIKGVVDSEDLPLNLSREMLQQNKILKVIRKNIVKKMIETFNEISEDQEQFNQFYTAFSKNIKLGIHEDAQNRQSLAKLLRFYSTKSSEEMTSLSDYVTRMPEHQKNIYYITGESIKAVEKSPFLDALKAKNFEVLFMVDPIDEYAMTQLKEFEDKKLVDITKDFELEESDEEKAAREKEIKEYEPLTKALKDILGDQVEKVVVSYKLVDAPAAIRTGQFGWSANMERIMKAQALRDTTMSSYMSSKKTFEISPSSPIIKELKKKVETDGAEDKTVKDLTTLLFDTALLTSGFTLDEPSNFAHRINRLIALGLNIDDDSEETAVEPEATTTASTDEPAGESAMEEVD
# Tyrosine-protein phosphatase non-receptor type 12, sequence (Q05209 whole entry): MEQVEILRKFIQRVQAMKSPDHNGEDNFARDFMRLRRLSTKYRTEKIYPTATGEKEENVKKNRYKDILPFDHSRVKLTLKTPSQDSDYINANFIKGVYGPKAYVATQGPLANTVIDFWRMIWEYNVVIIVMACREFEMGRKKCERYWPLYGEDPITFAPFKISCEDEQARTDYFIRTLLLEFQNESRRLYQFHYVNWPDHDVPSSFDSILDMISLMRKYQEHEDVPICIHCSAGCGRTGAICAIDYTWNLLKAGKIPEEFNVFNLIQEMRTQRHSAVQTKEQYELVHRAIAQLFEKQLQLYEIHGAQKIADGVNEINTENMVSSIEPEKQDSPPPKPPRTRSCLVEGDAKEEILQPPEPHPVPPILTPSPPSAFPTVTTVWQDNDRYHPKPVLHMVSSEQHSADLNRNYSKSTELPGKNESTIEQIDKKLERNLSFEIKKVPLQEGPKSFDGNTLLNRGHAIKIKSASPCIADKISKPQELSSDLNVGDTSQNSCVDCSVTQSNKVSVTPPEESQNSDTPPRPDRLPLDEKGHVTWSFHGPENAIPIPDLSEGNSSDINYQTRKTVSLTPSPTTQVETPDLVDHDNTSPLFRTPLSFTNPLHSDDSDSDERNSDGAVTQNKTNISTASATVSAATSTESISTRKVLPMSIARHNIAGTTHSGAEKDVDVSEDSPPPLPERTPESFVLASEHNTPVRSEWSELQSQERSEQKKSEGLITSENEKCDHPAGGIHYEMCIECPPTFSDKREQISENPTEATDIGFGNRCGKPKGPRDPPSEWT
smiles,measurement,setting,value
CCC1SC2=NC(C)=C(C(=O)OCCOC)C(c3ccc(C(=O)OC)cc3)N2C1=O (configuration not stated),AC50,[1],50.8 µM (active)
CCOC(=O)C1=C(C)N=c2s/c(=C\c3cc(Cl)c(OCC(=O)O)c(Cl)c3)c(=O)n2C1c1cccc(OC)c1 (configuration not stated),IC50,[2],7.99 µM (active)
same,IC50,[3],1.22 µM (active)
same,IC50,[4],44.6 µM (active)
same,IC50,[5],13.4 µM (active)
same,IC50,[6],49.7 µM (active)
same,IC50,[7],1.95 µM (active)
same,IC50,[8],2.76 µM (active)
same,IC50,[9],31.9 µM (active)
same,IC50,[10],34.1 µM (active)
CCCCCCC[n+]1ccc(-c2cc[n+](CCCCCCC)cc2)cc1,AC50,[11],0.22 µM (active)
same,EC50,[12],64.9 µM (active)
same,EC50,[13],> 160 µM (inactive)
same,EC50,[14],> 180 µM (inactive)
same,IC50,[15],3.65 µM (active)
same,EC50,[16],0.055 µM (active)
same,IC50,[17],2.74 µM (active)
